According to ChEMBL document CHEMBL1212924 (J Med Chem, 2010):
Calls of active or inactive are those of the source. No cut-off for these calls is given here.

Tested on: not listed separately
Experiment: Clearance in rat at 1 mg/kg, iv and 2 mg/kg, po
Assay type: ADME, organism-based
Conditions: in vivo

clearance [mL/min/kg] | SMILES
130 | CCN1Cc2ccc(OC)cc2C[C@@H]1C(=O)Nc1cc(F)c(-c2cn[nH]c2)cc1OCCN(C)C
41 | COc1ccc2c(c1)C[C@H](C(=O)Nc1ccc(-c3cn[nH]c3)cc1OCC1CCN(C)CC1)NC2
42 | CN(C)CCOc1cc(-c2cn[nH]c2)c(F)cc1NC(=O)[C@H]1Cc2ccccc2CN1CC1CC1

Tested on: Rattus norvegicus
Experiment: Reduction in intraocular pressure in Brown norway rat at 40 ug administered as drops in eye after 2 hrs
Assay type: functional, organism-based
Conditions: not given

SMILES | Activity
COc1ccc2c(c1)C[C@H](C(=O)Nc1ccc(-c3cn[nH]c3)cc1OCC1CCN(C)CC1)NC2 | Active

Biological target: T1, Serine/threonine-protein kinase LATS2 (Homo sapiens) (UniProt Q9NRM7)
T1 sequence (whole entry): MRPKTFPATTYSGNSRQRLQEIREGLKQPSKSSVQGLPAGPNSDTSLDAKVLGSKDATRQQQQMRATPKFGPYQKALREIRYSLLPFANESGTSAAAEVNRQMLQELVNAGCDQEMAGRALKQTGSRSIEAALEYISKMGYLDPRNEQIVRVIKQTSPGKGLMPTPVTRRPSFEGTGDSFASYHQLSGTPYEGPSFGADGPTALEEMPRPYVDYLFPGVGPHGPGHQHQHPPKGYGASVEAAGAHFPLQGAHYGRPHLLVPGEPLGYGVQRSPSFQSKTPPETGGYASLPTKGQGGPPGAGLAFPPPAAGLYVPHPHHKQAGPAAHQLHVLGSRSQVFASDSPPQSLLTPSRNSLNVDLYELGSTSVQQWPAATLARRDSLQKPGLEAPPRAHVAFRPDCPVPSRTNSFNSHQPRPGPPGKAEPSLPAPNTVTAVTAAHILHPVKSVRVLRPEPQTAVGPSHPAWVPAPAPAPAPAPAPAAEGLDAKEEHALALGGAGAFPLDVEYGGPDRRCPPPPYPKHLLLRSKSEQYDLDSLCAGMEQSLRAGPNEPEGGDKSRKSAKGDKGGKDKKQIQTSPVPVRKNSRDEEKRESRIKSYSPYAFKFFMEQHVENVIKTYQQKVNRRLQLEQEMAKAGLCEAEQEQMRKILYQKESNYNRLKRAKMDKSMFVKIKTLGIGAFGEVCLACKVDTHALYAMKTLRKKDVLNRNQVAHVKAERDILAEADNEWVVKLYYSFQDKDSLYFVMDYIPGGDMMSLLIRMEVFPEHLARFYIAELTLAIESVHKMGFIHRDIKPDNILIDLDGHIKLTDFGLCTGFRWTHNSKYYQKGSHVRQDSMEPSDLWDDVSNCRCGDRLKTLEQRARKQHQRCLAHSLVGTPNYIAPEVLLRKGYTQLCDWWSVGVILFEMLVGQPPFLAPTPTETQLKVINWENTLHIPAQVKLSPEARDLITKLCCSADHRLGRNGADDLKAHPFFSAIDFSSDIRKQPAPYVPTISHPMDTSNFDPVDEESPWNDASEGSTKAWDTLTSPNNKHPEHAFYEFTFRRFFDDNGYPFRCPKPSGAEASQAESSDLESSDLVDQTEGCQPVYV
Experiment: Inhibition of Lats2 at 3 uM
Conditions: not given

inhibition [%] | SMILES
75 | COc1ccc2c(c1)C[C@H](C(=O)Nc1ccc(-c3cn[nH]c3)cc1OCC1CCN(C)CC1)NC2

Biological target: CYP3A4 (Homo sapiens, UniProt P08684)
Sequence (P08684 whole entry): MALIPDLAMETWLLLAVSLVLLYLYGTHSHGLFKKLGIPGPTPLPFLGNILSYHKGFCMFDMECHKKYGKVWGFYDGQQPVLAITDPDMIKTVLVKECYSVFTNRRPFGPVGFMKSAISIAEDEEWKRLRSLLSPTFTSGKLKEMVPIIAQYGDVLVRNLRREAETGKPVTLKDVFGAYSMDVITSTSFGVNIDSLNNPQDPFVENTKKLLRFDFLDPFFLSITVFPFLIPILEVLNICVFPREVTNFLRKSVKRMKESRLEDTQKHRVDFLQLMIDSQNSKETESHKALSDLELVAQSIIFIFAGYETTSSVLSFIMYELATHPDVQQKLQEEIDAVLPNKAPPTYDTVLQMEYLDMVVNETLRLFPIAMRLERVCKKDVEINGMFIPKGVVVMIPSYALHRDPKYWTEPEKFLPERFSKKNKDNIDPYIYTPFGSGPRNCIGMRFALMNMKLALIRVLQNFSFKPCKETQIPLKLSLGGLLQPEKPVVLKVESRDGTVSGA
Experiment: Inhibition of CYP3A4 at 10 uM
Assay type: ADME
Conditions: not given

SMILES | inhibition at 10 µM [%]
CCN1Cc2ccccc2C[C@@H]1C(=O)Nc1cc(F)c(-c2cn[nH]c2)cc1OCCN(C)C | 39
COc1ccc2c(c1)C[C@H](C(=O)Nc1ccc(-c3cn[nH]c3)cc1OCC1CCN(C)CC1)NC2 | 15

Biological target: Serine/threonine-protein kinase 33 (Homo sapiens) (UniProt Q9BYT3)
Experiment: Inhibition of STK33 at 3 uM
Conditions: not given

inhibition [%] | SMILES
66 | COc1ccc2c(c1)C[C@H](C(=O)Nc1ccc(-c3cn[nH]c3)cc1OCC1CCN(C)CC1)NC2

Tested on: not listed separately
Experiment: Half life in rat at 1 mg/kg, iv and 2 mg/kg, po
Assay type: ADME, organism-based
Conditions: in vivo

half-life [min] | SMILES
102 | CCN1Cc2ccc(OC)cc2C[C@@H]1C(=O)Nc1cc(F)c(-c2cn[nH]c2)cc1OCCN(C)C
204 | COc1ccc2c(c1)C[C@H](C(=O)Nc1ccc(-c3cn[nH]c3)cc1OCC1CCN(C)CC1)NC2
138 | CN(C)CCOc1cc(-c2cn[nH]c2)c(F)cc1NC(=O)[C@H]1Cc2ccccc2CN1CC1CC1

Biological target: Serine/threonine-protein kinase MRCK beta (Homo sapiens) (UniProt Q9Y5S2)
Experiment: Inhibition of MRCKbeta at 3 uM
Conditions: not given

inhibition [%] | SMILES
77 | COc1ccc2c(c1)C[C@H](C(=O)Nc1ccc(-c3cn[nH]c3)cc1OCC1CCN(C)CC1)NC2

Biological target: Rho-associated protein kinase 1 (Homo sapiens, UniProt Q13464)
Sequence (Q13464 whole entry): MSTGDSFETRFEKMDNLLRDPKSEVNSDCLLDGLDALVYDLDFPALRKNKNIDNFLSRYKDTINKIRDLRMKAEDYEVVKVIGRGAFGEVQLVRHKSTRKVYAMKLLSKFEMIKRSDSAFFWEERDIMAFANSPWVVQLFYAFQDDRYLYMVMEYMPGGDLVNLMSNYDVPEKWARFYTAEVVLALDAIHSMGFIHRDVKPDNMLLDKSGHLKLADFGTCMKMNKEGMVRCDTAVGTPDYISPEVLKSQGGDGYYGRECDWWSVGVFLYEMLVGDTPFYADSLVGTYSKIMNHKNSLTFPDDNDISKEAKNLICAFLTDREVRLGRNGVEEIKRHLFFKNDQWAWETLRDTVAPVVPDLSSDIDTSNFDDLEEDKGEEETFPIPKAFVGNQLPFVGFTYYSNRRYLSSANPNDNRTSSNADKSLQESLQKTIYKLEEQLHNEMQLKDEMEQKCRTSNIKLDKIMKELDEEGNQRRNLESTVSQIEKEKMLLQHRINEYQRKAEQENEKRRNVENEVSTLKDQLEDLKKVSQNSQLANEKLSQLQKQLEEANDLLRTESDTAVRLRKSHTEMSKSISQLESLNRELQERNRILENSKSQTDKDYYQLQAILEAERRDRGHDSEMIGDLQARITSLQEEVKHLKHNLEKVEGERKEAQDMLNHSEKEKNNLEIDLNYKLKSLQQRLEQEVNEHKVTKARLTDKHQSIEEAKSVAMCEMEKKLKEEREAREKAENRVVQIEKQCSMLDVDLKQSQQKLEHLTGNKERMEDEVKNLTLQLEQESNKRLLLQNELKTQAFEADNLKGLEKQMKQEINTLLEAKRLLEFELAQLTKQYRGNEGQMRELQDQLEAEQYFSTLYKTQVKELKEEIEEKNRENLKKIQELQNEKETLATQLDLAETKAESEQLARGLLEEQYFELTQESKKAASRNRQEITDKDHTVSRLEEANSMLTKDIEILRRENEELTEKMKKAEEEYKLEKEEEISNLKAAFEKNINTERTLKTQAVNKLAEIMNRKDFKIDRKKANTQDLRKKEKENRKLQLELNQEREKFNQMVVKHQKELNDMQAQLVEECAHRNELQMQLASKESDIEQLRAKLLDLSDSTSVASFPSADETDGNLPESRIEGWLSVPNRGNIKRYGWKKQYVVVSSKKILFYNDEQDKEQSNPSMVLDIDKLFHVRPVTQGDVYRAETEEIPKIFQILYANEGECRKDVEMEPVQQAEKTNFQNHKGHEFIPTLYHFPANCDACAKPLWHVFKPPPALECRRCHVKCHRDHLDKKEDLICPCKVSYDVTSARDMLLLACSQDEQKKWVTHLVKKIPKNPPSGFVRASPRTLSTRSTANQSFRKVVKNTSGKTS
Experiment: not given
Conditions: not given

SMILES | IC50 [nM]
CCN1Cc2ccccc2C[C@@H]1C(=O)Nc1cc(F)c(-c2cn[nH]c2)cc1OCCN(C)C | 16
COc1ccc2c(c1)C[C@H](C(=O)Nc1ccc(-c3cn[nH]c3)cc1OCC1CCN(C)CC1)NC2 | 10

Tested on: not listed separately
Experiment: in vitro
Conditions: human, liver microsomes
Description: Half life in human liver microsome at 2 mg/mL

half-life [min] | SMILES
11 | CCN1Cc2ccc(OC)cc2C[C@@H]1C(=O)Nc1cc(F)c(-c2cn[nH]c2)cc1OCCN(C)C
61 | COc1ccc2c(c1)C[C@H](C(=O)Nc1ccc(-c3cn[nH]c3)cc1OCC1CCN(C)CC1)NC2
3 | CN(C)CCOc1cc(-c2cn[nH]c2)c(F)cc1NC(=O)[C@H]1Cc2ccccc2CN1CC1CC1

SMILES | half-life [min]
CCN1Cc2ccccc2C[C@@H]1C(=O)Nc1cc(F)c(-c2cn[nH]c2)cc1OCCN(C)C | 1

Biological target: Mitogen-activated protein kinase 10 (Homo sapiens, UniProt P53779)
Sequence (P53779 whole entry): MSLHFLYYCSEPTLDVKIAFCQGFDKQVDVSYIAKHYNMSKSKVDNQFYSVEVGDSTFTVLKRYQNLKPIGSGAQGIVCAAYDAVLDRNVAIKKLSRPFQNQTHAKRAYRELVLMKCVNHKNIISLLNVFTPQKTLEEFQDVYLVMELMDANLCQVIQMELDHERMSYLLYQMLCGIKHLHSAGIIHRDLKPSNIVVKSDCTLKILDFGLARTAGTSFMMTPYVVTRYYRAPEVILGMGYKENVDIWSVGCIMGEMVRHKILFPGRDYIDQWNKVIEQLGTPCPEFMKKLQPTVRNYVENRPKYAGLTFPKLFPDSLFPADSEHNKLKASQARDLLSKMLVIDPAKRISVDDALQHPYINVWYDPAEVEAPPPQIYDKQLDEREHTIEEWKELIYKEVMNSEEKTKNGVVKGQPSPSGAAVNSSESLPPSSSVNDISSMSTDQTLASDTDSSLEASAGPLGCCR
Experiment: not given
Conditions: not given

SMILES | IC50 [µM]
CCN1Cc2ccccc2C[C@@H]1C(=O)Nc1cc(F)c(-c2cn[nH]c2)cc1OCCN(C)C | > 20
COc1ccc2c(c1)C[C@H](C(=O)Nc1ccc(-c3cn[nH]c3)cc1OCC1CCN(C)CC1)NC2 | > 20

Tested on: not listed separately
Experiment: Inhibition of p38
Conditions: not given

SMILES | IC50 [µM]
CCN1Cc2ccccc2C[C@@H]1C(=O)Nc1cc(F)c(-c2cn[nH]c2)cc1OCCN(C)C | > 20
COc1ccc2c(c1)C[C@H](C(=O)Nc1ccc(-c3cn[nH]c3)cc1OCC1CCN(C)CC1)NC2 | > 20

Biological target: Phosphatidylinositol 4,5-bisphosphate 3-kinase catalytic subunit beta isoform (Homo sapiens) (UniProt P42338)
Experiment: Inhibition of PI3Kbeta at 3 uM
Conditions: not given

inhibition [%] | SMILES
74 | COc1ccc2c(c1)C[C@H](C(=O)Nc1ccc(-c3cn[nH]c3)cc1OCC1CCN(C)CC1)NC2

Biological target: Dual specificity protein kinase CLK1 (Homo sapiens) (UniProt P49759)
Experiment: Inhibition of CLK1 at 3 uM
Conditions: not given

inhibition [%] | SMILES
86 | COc1ccc2c(c1)C[C@H](C(=O)Nc1ccc(-c3cn[nH]c3)cc1OCC1CCN(C)CC1)NC2

Tested on: not listed separately
Experiment: Oral bioavailability in rat at 2 mg/kg
Assay type: ADME, organism-based
Conditions: in vivo

bioavailability [%] | SMILES
0 | CCN1Cc2ccc(OC)cc2C[C@@H]1C(=O)Nc1cc(F)c(-c2cn[nH]c2)cc1OCCN(C)C
0 | COc1ccc2c(c1)C[C@H](C(=O)Nc1ccc(-c3cn[nH]c3)cc1OCC1CCN(C)CC1)NC2
0 | CN(C)CCOc1cc(-c2cn[nH]c2)c(F)cc1NC(=O)[C@H]1Cc2ccccc2CN1CC1CC1

Biological target: CYP2D6 (Homo sapiens, UniProt P10635)
Sequence (P10635 whole entry): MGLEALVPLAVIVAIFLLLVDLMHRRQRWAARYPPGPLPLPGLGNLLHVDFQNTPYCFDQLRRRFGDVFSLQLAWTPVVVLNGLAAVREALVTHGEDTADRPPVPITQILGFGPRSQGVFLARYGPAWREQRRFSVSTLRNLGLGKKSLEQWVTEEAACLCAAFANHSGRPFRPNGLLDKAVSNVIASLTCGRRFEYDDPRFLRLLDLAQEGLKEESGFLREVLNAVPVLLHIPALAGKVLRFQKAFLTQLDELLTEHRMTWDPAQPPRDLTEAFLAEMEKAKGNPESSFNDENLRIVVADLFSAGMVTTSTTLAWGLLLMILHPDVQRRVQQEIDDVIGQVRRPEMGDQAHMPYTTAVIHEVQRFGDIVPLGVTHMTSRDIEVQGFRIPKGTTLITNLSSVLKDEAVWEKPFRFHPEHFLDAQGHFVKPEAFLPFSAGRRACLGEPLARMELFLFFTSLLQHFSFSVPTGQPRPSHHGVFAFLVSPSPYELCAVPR
Experiment: Inhibition of CYP2D6 at 10 uM
Assay type: ADME
Conditions: not given

SMILES | inhibition at 10 µM [%]
CCN1Cc2ccccc2C[C@@H]1C(=O)Nc1cc(F)c(-c2cn[nH]c2)cc1OCCN(C)C | 52
COc1ccc2c(c1)C[C@H](C(=O)Nc1ccc(-c3cn[nH]c3)cc1OCC1CCN(C)CC1)NC2 | 52

Biological target: T2, CYP1A2 (Homo sapiens, UniProt P05177)
T2 sequence (P05177 whole entry): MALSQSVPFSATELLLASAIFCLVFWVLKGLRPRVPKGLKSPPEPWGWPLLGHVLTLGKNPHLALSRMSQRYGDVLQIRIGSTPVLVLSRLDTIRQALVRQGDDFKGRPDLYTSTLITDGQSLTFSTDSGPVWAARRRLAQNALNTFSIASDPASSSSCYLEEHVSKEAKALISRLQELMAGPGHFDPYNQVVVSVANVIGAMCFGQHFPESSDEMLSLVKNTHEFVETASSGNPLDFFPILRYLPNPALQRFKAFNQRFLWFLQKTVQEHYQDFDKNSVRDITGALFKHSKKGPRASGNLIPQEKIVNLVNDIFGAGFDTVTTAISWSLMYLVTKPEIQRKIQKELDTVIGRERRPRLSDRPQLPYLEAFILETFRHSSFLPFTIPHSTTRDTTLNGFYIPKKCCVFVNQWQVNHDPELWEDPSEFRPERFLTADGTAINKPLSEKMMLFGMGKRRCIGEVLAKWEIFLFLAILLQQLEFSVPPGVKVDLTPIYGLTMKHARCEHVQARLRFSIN
Experiment: Inhibition of CYP1A2 at 10 uM
Assay type: ADME
Conditions: not given

SMILES | inhibition at 10 µM [%]
CCN1Cc2ccccc2C[C@@H]1C(=O)Nc1cc(F)c(-c2cn[nH]c2)cc1OCCN(C)C | -24
COc1ccc2c(c1)C[C@H](C(=O)Nc1ccc(-c3cn[nH]c3)cc1OCC1CCN(C)CC1)NC2 | 3

Tested on: not listed separately
Experiment: Volume of distribution in rat at 1 mg/kg, iv and 2 mg/kg, po
Assay type: ADME, organism-based
Conditions: in vivo

Vd [L/kg] | SMILES
17 | CCN1Cc2ccc(OC)cc2C[C@@H]1C(=O)Nc1cc(F)c(-c2cn[nH]c2)cc1OCCN(C)C
9.5 | COc1ccc2c(c1)C[C@H](C(=O)Nc1ccc(-c3cn[nH]c3)cc1OCC1CCN(C)CC1)NC2
7 | CN(C)CCOc1cc(-c2cn[nH]c2)c(F)cc1NC(=O)[C@H]1Cc2ccccc2CN1CC1CC1

Biological target: Serine/threonine-protein kinase 38 (Homo sapiens) (UniProt Q15208)
Experiment: Inhibition of NDR1 at 3 uM
Conditions: not given

inhibition [%] | SMILES
72 | COc1ccc2c(c1)C[C@H](C(=O)Nc1ccc(-c3cn[nH]c3)cc1OCC1CCN(C)CC1)NC2

Biological target: Dual specificity protein kinase CLK4 (Homo sapiens) (UniProt Q9HAZ1)
Experiment: Inhibition of CLK4 at 3 uM
Conditions: not given

inhibition [%] | SMILES
91 | COc1ccc2c(c1)C[C@H](C(=O)Nc1ccc(-c3cn[nH]c3)cc1OCC1CCN(C)CC1)NC2

Biological target: Serine/threonine-protein kinase MRCK alpha (Homo sapiens, UniProt Q5VT25)
Sequence (Q5VT25 whole entry): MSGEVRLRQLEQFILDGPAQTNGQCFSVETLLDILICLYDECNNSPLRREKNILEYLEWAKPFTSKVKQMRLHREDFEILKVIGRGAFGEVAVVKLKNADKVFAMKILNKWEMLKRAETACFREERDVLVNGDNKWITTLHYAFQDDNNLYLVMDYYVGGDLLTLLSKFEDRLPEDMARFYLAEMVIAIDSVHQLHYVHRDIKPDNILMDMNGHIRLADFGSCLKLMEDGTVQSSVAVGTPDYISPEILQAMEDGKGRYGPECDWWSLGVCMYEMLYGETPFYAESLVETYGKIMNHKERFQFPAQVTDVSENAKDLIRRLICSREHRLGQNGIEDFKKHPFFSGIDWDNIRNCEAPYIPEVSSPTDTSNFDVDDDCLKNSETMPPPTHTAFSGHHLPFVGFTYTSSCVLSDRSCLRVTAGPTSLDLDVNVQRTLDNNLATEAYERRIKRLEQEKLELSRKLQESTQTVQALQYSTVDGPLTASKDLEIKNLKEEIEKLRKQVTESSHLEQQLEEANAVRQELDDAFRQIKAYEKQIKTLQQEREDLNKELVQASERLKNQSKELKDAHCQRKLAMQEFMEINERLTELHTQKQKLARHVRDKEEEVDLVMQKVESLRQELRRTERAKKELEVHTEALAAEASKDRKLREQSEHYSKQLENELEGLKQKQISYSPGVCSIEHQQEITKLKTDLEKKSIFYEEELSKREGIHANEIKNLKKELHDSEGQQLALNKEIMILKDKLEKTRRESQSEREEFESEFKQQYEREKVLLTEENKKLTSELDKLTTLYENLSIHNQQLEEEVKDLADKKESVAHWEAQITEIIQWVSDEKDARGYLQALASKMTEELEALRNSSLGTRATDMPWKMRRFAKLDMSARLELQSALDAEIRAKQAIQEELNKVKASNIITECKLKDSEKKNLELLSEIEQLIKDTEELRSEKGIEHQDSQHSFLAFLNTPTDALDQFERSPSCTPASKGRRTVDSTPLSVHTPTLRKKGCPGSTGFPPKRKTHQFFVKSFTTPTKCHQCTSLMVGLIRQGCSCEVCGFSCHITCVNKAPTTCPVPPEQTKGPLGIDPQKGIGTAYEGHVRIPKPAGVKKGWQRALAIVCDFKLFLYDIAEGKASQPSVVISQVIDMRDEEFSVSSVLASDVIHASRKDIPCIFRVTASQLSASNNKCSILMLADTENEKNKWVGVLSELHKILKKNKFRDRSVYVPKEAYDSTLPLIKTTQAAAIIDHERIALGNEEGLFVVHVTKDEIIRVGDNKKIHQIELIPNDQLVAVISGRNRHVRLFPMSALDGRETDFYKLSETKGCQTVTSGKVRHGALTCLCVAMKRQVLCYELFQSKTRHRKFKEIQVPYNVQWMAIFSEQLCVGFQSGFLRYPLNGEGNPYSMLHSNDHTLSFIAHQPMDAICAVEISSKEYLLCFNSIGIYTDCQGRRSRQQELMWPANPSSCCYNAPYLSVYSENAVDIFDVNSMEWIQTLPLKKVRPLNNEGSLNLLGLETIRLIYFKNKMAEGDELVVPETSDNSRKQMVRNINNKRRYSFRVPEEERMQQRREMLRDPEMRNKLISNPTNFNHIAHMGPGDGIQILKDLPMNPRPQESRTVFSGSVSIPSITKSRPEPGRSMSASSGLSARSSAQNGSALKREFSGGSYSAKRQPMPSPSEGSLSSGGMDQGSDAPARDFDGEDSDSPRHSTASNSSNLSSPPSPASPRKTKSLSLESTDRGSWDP
Experiment: Inhibition of MRCKalpha
Conditions: not given

SMILES | IC50 [nM]
CCN1Cc2ccccc2C[C@@H]1C(=O)Nc1cc(F)c(-c2cn[nH]c2)cc1OCCN(C)C | 810
COc1ccc2c(c1)C[C@H](C(=O)Nc1ccc(-c3cn[nH]c3)cc1OCC1CCN(C)CC1)NC2 | 669

Biological target: CYP2C9 (Homo sapiens, UniProt P11712)
Sequence (P11712 whole entry): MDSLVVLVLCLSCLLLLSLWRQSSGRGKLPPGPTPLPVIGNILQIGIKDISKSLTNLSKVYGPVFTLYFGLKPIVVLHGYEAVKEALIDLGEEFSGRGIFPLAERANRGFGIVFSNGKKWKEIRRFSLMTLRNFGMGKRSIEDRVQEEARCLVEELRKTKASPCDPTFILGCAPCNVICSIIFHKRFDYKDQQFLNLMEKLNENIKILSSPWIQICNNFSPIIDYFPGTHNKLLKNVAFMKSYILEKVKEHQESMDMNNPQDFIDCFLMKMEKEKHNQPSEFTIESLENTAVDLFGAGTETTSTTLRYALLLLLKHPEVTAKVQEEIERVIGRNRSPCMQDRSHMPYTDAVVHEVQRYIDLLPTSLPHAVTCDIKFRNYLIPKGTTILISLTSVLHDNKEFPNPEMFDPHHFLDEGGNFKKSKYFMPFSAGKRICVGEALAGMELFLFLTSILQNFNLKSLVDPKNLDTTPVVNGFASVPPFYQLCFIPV
Experiment: Inhibition of CYP2C9 at 10 uM
Assay type: ADME
Conditions: not given

SMILES | inhibition at 10 µM [%]
CCN1Cc2ccccc2C[C@@H]1C(=O)Nc1cc(F)c(-c2cn[nH]c2)cc1OCCN(C)C | 70
COc1ccc2c(c1)C[C@H](C(=O)Nc1ccc(-c3cn[nH]c3)cc1OCC1CCN(C)CC1)NC2 | 45
